Among the data in the Deep4Chem optical property database are emission maximum values, retold here.

The structures appear in SMILES notation. Where “and” joins values, the source holds several entries; their conditions need not be identical. Equal values may be shown once.

A short description of the series: solvent given as SMILES.

`CCn1c(-c2ccc(-c3ccc(-c4ccc(-c5n(CC)c6ccccc6[n+]5CC)cc4)c(C)c3)cc2)[n+](CC)c2ccccc21` yielded an emission maximum (in O) of 400 nm.
In the case of `COc1cc(-c2nc(-c3ccccc3)c3ccccn23)ccc1O`, the emission maximum (in CC#N) amounted to 489 nm.
As for `Cc1ccc(C2=Cc3c4ccccc4cc[n+]3[B-](F)(F)O2)cc1`, for the setting “in ClC(Cl)Cl”, the emission maximum is recorded as 471 nm.
Molecule `CC(=O)c1c(N[C@@H](CS)C(=O)O)c2ccc(N(C)C)cc2oc1=O` returned an emission maximum (in ClCCl) of 424 nm.
`COc1ccc(N(c2ccc(OC)cc2)c2ccc3c(c2)C2(c4cc(N(c5ccc(OC)cc5)c5ccc(OC)cc5)ccc4C=C3)c3ccccc3-c3ccccc32)cc1` yielded an emission maximum (in ClCCl) of 483 nm.
As to `COCCOc1ccc(OCCOC)c(C=O)c1`, the emission maximum is, setting by setting: (in CC(C)(C)O) 441 nm; (in CC(C)CO) 451 nm; (in CC(C)O) 453 nm; (in CCCCO) 457 nm; (in CCCO) 458 nm; (in CCO) 462 nm. Also, the emission maximum is, setting by setting: (in CN(C)C=O) 425 nm; (in CNC=O) 459 nm; (in CO) 467 nm; (in NC=O) 464 nm; (in O) 483 nm.
Take `Oc1cccc(/N=C/c2ccccc2Oc2ccccc2)c1`: the emission maximum reads like this: (in C1CCCCC1) 402 nm; (in C1COCCO1) 406 nm; (in CC#N) 395 nm; (in CC(C)=O) 415 nm; (in CC(C)CO) 387 nm; (in CC(C)O) 406 nm. The emission maximum reads like this: (in CCCCC) 403 nm; (in CCCCCCCCO) 410 nm; (in CCCCCCCO) 410 nm; (in CCCCCCO) 400 nm; (in CCCCO) 416 nm; (in CCCCOC(C)=O) 404 nm. Further, the emission maximum (in CCCO) is reported as 395 nm; the emission maximum (in CCOC(C)=O) is recorded as 420 nm; the emission maximum (in CCOCC) came out at 404 nm; the emission maximum (in CO) worked out at 380 nm; the emission maximum (in CS(C)=O) is reported as 396 nm; the emission maximum (in Cc1ccccc1) was determined as 412 nm. The emission maximum by setting is: (in Cc1ccccc1C) 403 nm; (in ClC(Cl)Cl) 415 nm; (in ClCCl) 407 nm; (in N#Cc1ccccc1) 385 nm; (in OCCO) 418 nm; (in c1ccccc1) 414 nm.
On to `N#Cc1ccc(-c2ccc(C3=CCC(c4ccccc4)CC3)s2)s1` (stereo not drawn), for which the emission maximum reads like this: (in C1CCOC1) 442 nm; (in CC#N) 448 nm; (in CCCCCC) 427 nm; (in CCO) 444 nm; (in OCCOCCO) 452 nm; (in c1ccncc1) 452 nm.
`CCCCC1(CCCC)c2cc(C#Cc3ccc(/C=C(\C)c4ccccc4)cc3)ccc2-c2ccc(C#Cc3ccc(/C=C(\C)c4ccccc4)cc3)cc21` came in with an emission maximum (in C1CCOC1) of 403 nm.
Consider `CN(C)c1ccc2c(c1)COc1c-2oc2ccccc2c1=O`, for which the emission maximum reads like this: (in C1CCCCC1) 411.43 nm; (in CC#N) 489 nm and 491.43 nm; (in CCOC(C)=O) 464 nm and 461.07 nm; (in Cc1ccccc1) 441 nm.
In turn, `c1ccc(C2(c3ccccc3)c3ccccc3N(c3ccc(-c4nc([C@]56CC7CC(C[C@@H](C7)C5)C6)nc([C@]56C[C@H]7C[C@@H](C[C@H](C7)C5)C6)n4)cc3)c3ccccc32)cc1` registered an emission maximum (in CC(C)(C)c1ccc(-n2c3ccc([Si](c4ccccc4)(c4ccccc4)c4ccccc4)cc3c3cc([Si](c4ccccc4)(c4ccccc4)c4ccccc4)ccc32)cc1) of 445.29 nm and an emission maximum (in Cc1ccccc1) of 451.05 nm.
With `Cc1cc(C)nc(N)n1`, the emission maximum runs as follows: (in CCO) 337 nm; (in CO) 339 nm; (in O) 342 nm.
On to `CCn1c2ccc(-c3ccc(-c4cccs4)s3)cc2c2cc(-c3ccc(-c4cccs4)s3)ccc21`, for which, where the note is “in ClCCl”, the emission maximum was 430 nm.
As for `Nc1ccc2nc(-c3ccccc3)c(=O)oc2c1`, the emission maximum (in c1ccccc1) is on record as 480 nm.
`CC(C)(C)c1ccc(-c2nc3c4ccccc4c4ccccc4c3n2-c2ccc(-c3ccc(N(c4ccccc4)c4ccccc4)cc3)cc2)cc1` yielded an emission maximum (in ClCCl) of 426 nm.
On to `CC[N+](CC)=c1ccc2c(C(F)(F)F)c3c(oc-2c1)-c1ccc(N(C)C)cc1CC3`, for which the emission maximum reads like this: (in CCO) 425 nm; (in ClCCl) 713 nm; (in O) 716 nm.
On to `Nc1ccc(N2C(=O)c3ccc4c5ccc6c7c(ccc(c8ccc(c3c48)C2=O)c75)C(=O)N(c2ccc(O)cc2)C6=O)cc1`, for which the emission maximum (in CN(C)C=O) turned out to be 537 nm.
As for `O=S1(=O)c2ccc(-c3ccc4c(c3)c3ccccc3n4-c3ccccc3)cc2C2(c3cc(-c4ccc5c(c4)c4ccccc4n5-c4ccccc4)ccc31)c1cc(-c3ccc4c(c3)c3ccccc3n4-c3ccccc3)ccc1S(=O)(=O)c1ccc(-c3ccc4c(c3)c3ccccc3n4-c3ccccc3)cc12`, the emission maximum (in CC1CCCO1) came to 413 nm.
The molecule `CN(C)c1ccc(-c2nc(C#N)c(C#N)n2C)cc1` came in with an emission maximum (in C1CCCCC1) of 375 nm, an emission maximum (in CC#N) of 519 nm, an emission maximum (in CO) of 427 nm and an emission maximum (in ClC(Cl)Cl) of 437 nm.
Where the note is “in C1CCOC1”, `COc1ccc(-n2c(-c3ccc(-c4cncc5ccccc45)cc3)nc(-c3ccccc3)c2-c2ccccc2)cc1` gave an emission maximum of 432 nm.
In turn, `c1ccc(-c2nc(-c3ccccc3)c(-c3ccccc3)o2)cc1` registered an emission maximum (in Cc1ccccc1) of 381 nm.
In the case of `CCC1=C(C)C2=Cc3c4ccccc4c4n3[B-](c3ccc(OC)cc3)(Oc3ccccc3-4)[N+]2=C1C` (stereo not drawn), the emission maximum came to 634 nm (in CC#N), 635 nm (in CCCCCC), 641 nm (in Cc1ccccc1) and 639 nm (in ClCCl).
For the molecule `Nc1cc2nc3cc(Cl)c(Cl)cc3nc2cc1N`, the emission maximum (in CCO) was 549 nm.
As for `c1ccc(-c2oc(-c3ccccc3)c3ccccc23)cc1`, the emission maximum (in C1CCCCC1) was 448 nm; the emission maximum (in C1CCOC1) was determined as 451 nm; the emission maximum (in CC#N) was found to be 452 nm; the emission maximum (in CCO) is given as 451 nm; the emission maximum (in CN(C)C=O) is on record as 458 nm; the emission maximum (in CS(C)=O) stood at 460 nm. Further, the emission maximum (in Cc1ccccc1) is on record as 454 nm.
Regarding `Cn1c2cc(N3CCCCC3)c(F)cc2c(=O)c2cc(F)c(N3CCCCC3)cc21`, the emission maximum (in CCO) is given as 455 nm.
Consider `C[Si]1(C)C2=C(c3ccc(N(c4ccccc4)c4ccccc4)cc31)P(=O)(c1ccccc1)c1ccccc12` (stereo not drawn), for which the emission maximum by setting is: (in CC#N) 611 nm; (in CO) 624 nm; (in Cc1ccccc1) 544 nm.
In the case of `CCN(CC)c1ccc([N+]2=Cc3ccc4c5c(ccc4c3O[B-]2(c2c(F)c(F)c(F)c(F)c2F)c2c(F)c(F)c(F)c(F)c2F)C=[N+](c2ccc(N(CC)CC)cc2)[B-](c2c(F)c(F)c(F)c(F)c2F)(c2c(F)c(F)c(F)c(F)c2F)O5)cc1`, the emission maximum by setting is: (in C1CCOC1) 714 nm; (in Cc1ccccc1) 644 nm; (in ClCCl) 683 nm.
Consider `COc1ccc(-c2c3ccc(=[N+]4CCCCC4)cc-3oc3cc(N4CCCCC4)ccc23)cc1`, for which the emission maximum reads like this: (in CCO) 582 nm; (in ClCCl) 582 nm.
Take `CCCCCCc1cc2c3cscc3c3cc(CCCCCC)sc3c2s1`: the emission maximum (in ClC(Cl)Cl) amounted to 442 nm.
As for `COc1cc2c(cc1-c1ccc(C=O)cc1)Cc1c3c(c4c(c1-2)-c1cc(OC)c(-c2ccc(C=O)cc2)cc1C4)C(=O)N(CCC(C)C)C3=O`, the emission maximum (in C1CCOC1) worked out at 462 nm.
